Test [1] has as its target recombinant human 11β-HSD1 (Homo sapiens, UniProt P28845). Briefly: Enzyme activity assay on human 11β-HSD1 (HTRF cortisol). To be noted: recombinant human 11β-HSD1, 5 μM cortisone, 2 hours at 37° C. The class given is biochemical. As to the method: Evaluation of 11β-HSD1 Inhibitors (Enzyme Activity Assay on Human 11β-HSD1)
Enzymatic activity for human 11β-HSD1 was determined in a 10 μl final volume of assay mixture containing 50 mM sodium phosphate buffer (pH 7.6), 1 mg/ml bovine serum albumin, 0.42 mg/ml NADPH, 1.26 mg/ml glucose-6-phosphate, glucose-6-phosphate dehydrogenase, test compound, recombinant human 11β-HSD1, and 5 μM cortisone as substrate. The reaction was started with the addition of cortisone. After incubation for 2 hours at 37° C., 5 μl of europium cryptate-labelled anti-cortisol antibody and 5 μl of XL665-labeled cortisol were added. After further incubation for 2 hours at room temperature, the homogeneous time-resolved fluorescence (HTRF) signal was measured. The cortisol production was quantitated by a standard curve generated with several known concentrations of cortisol in each assay.
The amount of cortisol production without compounds was served as control, and the percent inhibition by test compound at each concentration was calculated. The IC50 value of the compound for 11β-HSD1 was obtained using the inhibition curve generated by plotting the percent inhibition versus the concentration of text compound.
Background: In TR-FRET formats the signal depends on donor and acceptor labels being close together.

Test [2] concerns the target recombinant mouse 11β-HSD1 (Mus musculus, UniProt P50172). In words: Enzyme activity assay on mouse 11β-HSD1 (HTRF corticosterone). The test is classed as biochemical. To be noted: recombinant mouse 11β-HSD1, 11-dehydrocorticosterone substrate, 2 hours at 37° C. As to the method:
[…] (Enzyme Activity Assay on Mouse 11β-HSD1)
Enzymatic activity for mouse 11β-HSD1 activity was determined in a 10 μl final volume of assay mixture containing 50 mM sodium phosphate buffer (pH 7.6), 1 mg/ml bovine serum albumin, 0.042 mg/ml NADPH, 1.26 mg/ml glucose-6-phosphate, glucose-6-phosphate dehydrogenase, test compound, recombinant mouse 11β-HSD1, and […] 11-dehydrocorticosterone as substrate. The reaction was started with the addition of 11-dehydrocorticosterone. After incubation for 2 hours at 37° C., 5 μl of europium cryptate-labelled anti-cortisol antibody and 5 μl of XL665-labeled cortisol were added. After further incubation for 2 hours at room temperature, the HTFR signal was measured. The corticosterone production was quantitated by a standard curve generated with several known concentrations of corticosterone in each assay.
Corticosterone production without compounds was served as control, and the percent inhibition by compound at each concentration was calculated. The IC50 value of the compound for 11β-HSD1 was obtained using the inhibition curve generated by plotting the percent inhibition versus the concentration of test compound.

recombinant human 11β-HSD1, sequence (P28845 whole entry): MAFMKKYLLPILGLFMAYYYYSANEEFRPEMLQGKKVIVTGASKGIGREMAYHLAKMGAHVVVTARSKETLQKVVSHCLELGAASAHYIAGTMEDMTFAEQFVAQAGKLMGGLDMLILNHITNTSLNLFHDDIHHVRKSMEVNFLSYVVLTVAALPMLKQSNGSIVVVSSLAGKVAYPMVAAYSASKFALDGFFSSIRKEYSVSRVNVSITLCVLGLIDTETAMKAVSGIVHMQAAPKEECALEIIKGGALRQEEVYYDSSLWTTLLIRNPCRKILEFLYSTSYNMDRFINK
recombinant mouse 11β-HSD1, sequence (P50172 whole entry): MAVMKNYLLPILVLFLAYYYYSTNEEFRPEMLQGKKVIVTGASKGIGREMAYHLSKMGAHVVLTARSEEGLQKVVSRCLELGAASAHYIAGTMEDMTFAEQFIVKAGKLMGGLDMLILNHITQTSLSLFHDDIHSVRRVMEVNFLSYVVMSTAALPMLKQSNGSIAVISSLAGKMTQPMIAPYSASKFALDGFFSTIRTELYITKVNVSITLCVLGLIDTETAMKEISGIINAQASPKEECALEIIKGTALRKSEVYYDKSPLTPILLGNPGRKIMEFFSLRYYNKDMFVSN

For `Cc1noc(C(=O)NC23CC4CC(CC(C4)C2)C3)c1Sc1ccccc1` [Compound A-1], the values for the IC50 in test [1] and in test [2] were 84 nM and 21000 nM, respectively.

Consider `Cc1noc(C(=O)NC23CC4CC(CC(C4)C2)C3)c1SC1CCCCC1` [Compound A-12], for which the concentration for half-maximal inhibition (IC50) – broadly, the point on the concentration scale where inhibition reaches its midpoint – amounted to 80 nM in test [1] and 6000 nM in test [2].

Regarding `Cc1noc(C(=O)c2ccccc2)c1SC1CCCCC1` [Compound A-15], the IC50 in test [1] stood at 16 nM; in test [2] it was 11600 nM.

Regarding `COc1noc(C(=O)c2ccccc2)c1S(=O)(=O)c1ccccc1` [Compound A-20], the results for the IC50 in test [1] and in test [2] were 93 nM and 5900 nM, respectively.

Regarding `Cc1noc(C(=O)NC23CC4CC(CC(C4)C2)C3)c1SC1CCCCCC1` [Compound A-21], the IC50 in test [1] is 15 nM; in test [2] it was 21000 nM.

Source of the values: patent US8952176B2, “Heterocyclic compound having type I 11 β hydroxysteroid dehydrogenase inhibitory activity” (Shionogi & Co., Ltd., priority 2005, dated 2015).
